How the values were obtained:
[1] = tested on: Viola arvensis, Bromus spp., Lolium spp., Agropyron repens and Urtica urens; details: Hoechst et al., 1991; cited from earlier work
Brachiaria decumbens = test: Greenhouse post-emergence herbicidal activity on Brachiaria decumbens; assay type: in vivo
Method: The expected efficacy of a combination of L-glufosinate ammonium and the other herbicides was calculated using the well-established Colby method. Any difference between the observed and “expected” efficacy could be attributed to synergy between the two compounds.
In the Colby method, the expected (or predicted) response of a combination of herbicides is calculated by taking the product of the observed response for each individual component of the combination when applied alone, divided by 100, and subtracting this value from the sum of the observed response for each component when applied alone. An unexpected enhancement in efficacy of the combination is then determined by comparing the observed response of the combination to the expected (or predicted) response as calculated from the observed response of each individual component alone. If the observed response of the combination is greater than the expected (or predicted) response, or stated conversely, if the difference between the observed and expected response is greater than zero, then the combination is said to be synergistic or unexpectedly effective (Colby, S. R., Weeds, 1967(15), p. 20-22). […]
The percentage efficacy was calculated at 7, 14, 21 and 28 days after application (DAA). The target weed was Brachiaria decumbens, and the concentration of the herbicide and the results are recorded Table 1.

## CP(=O)(O)CCC(N)C(=O)O (racemic) [glufosinate, DL-homoalanin-4-yl(methyl)phosphinic acid]
[1]
  Control of weed species by glufosinate: either not combated, or only weakly combated

## CS(=O)(=O)c1cc(C(F)(F)F)ccc1C(=O)c1cnoc1C1CC1 [isoxaflutole]
Brachiaria decumbens; 7 DAA
  Observed efficacy (%) of isoxaflutole (60 g a.i./ha): 45%
Brachiaria decumbens; 14 DAA
  Observed efficacy (%) of isoxaflutole (60 g a.i./ha): 70%
